US20240158438A1, “POLYPEPTIDE COMPOUND AND APPLICATION THEREOF” (CHENGDU SINTANOVO BIOTECHNOLOGY CO., LTD., priority 2021, published 2024)
Starred links: 1 amine or outer side, 2 acyl side, 3 side chain; linkers in the order of their positions; H or OH if unused. Non-standard residues stand in square brackets, D forms with d. Residues, ends and D or L forms follow the SMILES beside them. *: point of attachment. Azetidine3carboxylic = O=C(C1CN([*:1])C1)[*:2]; Pyrrolidine3carbonyl(3S) = O=C([C@H]1CCNC1)*; dBta = N[C@H](Cc1csc2ccccc12)C(=O)O; dTle = CC(C)(C)[C@@H](N)C(=O)O; Ac4c(3-oxa) = NC1(C(=O)O)COC1; Tle = CC(C)(C)[C@H](N)C(=O)O; X1 = N[C@H]1CCC[C@H]1C(=O)*; X2 = O=C(C12CNC[C@@H]1C2)*; dAbu = CC[C@@H](N)C(=O)O; Api = NC1(C(=O)O)CCNCC1; dAze = O=C(O)[C@H]1CCN1; Abu = CC[C@H](N)C(=O)O; X3 = NCC1(C(=O)*)CCC1; βAla = NCCC(=O)O

Columns and labels:
CYP1A2 = CYP1A2 (Homo sapiens (Human), UniProt P05177); assay: in vitro; type: in vitro ADME; conditions: microsomes; for IC50: 10 min
Protocol: (§1) Human liver microsomes containing cytochrome P450 (0.253 mg/mL protein) were incubated with test compounds (0.05-50 μM), CYPs substrates (10 μM […], 5 μM diclofenac, 30 μM mephenytoin, 5 μM dextromethorphan hydrobromide and 2 μM midazolam) and 1.0 mM NADP at 37° C. for 10 min. Naphthoflavone, sulfaphenazole, N-3-benzylnirvanol, quinidine and ketoconazole were used as reference inhibitors.

GHSR-1a = GHSR-1a (Homo sapiens (Human), UniProt Q92847); assay: Agonistic activity for GHSR-1a, FLIPR calcium assay; type: cell-based; conditions: agonist activity assay, Flp In-CHO-GHSR Stable Pool cells, FLIPR calcium 6 kit; read-out: The activity (IC50) of polypeptide compounds for GHSR-1a
CYP 2C9 = CYP 2C9 (Homo sapiens (Human), UniProt P11712); type: in vitro ADME; conditions: microsomes, 10 min
Protocol: as §1

CYP 3A4 = CYP 3A4 (Homo sapiens (Human), UniProt P08684); type: in vitro ADME; conditions: microsomes, 10 min
Protocol: as §1

CYP 2C19 = CYP 2C19 (Homo sapiens (Human), UniProt P33261); type: in vitro ADME; conditions: microsomes, 10 min
Protocol: as §1

CYP 2D6 = CYP 2D6 (Homo sapiens (Human), UniProt P10635); type: in vitro ADME; conditions: microsomes, 10 min
Protocol: as §1

Chain of CYP1A2 (P05177 whole entry): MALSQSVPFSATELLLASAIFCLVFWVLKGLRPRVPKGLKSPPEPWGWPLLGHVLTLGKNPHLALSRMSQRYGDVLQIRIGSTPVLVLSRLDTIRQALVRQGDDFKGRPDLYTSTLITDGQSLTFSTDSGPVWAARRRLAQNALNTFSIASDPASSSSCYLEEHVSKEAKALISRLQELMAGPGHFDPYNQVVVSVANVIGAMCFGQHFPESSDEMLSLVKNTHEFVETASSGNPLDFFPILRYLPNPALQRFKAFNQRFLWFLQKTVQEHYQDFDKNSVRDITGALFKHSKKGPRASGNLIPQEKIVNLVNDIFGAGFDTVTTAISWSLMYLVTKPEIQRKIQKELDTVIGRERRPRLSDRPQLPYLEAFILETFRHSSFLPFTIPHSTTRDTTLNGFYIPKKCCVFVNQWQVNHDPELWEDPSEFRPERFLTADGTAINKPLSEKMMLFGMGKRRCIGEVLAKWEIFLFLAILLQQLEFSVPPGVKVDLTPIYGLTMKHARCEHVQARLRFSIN
Chain of GHSR-1a (Q92847 whole entry): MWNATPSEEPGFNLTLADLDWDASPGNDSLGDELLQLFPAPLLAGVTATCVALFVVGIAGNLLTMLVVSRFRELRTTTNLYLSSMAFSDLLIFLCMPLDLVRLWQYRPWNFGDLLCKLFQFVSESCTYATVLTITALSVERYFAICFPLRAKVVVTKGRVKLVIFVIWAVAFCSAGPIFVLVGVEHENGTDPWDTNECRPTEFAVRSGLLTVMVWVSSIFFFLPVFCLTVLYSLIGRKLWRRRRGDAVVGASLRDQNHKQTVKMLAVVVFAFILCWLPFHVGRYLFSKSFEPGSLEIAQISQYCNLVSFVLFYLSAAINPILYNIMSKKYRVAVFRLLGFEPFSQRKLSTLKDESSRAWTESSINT
Chain of CYP 2C9 (P11712 whole entry): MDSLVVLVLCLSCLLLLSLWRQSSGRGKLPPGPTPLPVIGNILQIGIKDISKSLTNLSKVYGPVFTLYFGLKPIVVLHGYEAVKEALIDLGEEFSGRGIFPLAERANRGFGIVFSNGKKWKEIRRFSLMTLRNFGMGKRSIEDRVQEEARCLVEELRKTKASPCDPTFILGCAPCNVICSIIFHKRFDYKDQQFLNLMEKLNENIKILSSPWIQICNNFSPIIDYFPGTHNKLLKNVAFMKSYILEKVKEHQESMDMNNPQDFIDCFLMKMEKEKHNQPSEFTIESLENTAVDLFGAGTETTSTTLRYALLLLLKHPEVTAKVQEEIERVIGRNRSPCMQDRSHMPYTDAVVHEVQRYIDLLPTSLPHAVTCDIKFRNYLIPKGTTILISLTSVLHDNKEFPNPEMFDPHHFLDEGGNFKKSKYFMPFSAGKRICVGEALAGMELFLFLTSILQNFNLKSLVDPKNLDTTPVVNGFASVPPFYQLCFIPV
Chain of CYP 2D6 (P10635 whole entry): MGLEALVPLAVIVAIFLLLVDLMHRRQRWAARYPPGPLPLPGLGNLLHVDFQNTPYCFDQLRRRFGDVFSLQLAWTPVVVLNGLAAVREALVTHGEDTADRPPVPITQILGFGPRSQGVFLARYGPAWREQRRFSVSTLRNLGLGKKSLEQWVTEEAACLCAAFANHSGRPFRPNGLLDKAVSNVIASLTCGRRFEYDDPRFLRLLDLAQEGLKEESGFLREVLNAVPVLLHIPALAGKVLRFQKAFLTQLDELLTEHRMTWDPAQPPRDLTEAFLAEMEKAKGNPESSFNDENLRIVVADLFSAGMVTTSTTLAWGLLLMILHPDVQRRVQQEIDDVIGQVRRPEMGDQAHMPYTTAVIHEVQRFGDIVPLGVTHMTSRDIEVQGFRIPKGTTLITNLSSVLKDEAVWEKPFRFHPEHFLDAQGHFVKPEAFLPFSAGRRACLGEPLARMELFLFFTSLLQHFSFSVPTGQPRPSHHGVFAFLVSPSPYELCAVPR
Chain of CYP 3A4 (P08684 whole entry): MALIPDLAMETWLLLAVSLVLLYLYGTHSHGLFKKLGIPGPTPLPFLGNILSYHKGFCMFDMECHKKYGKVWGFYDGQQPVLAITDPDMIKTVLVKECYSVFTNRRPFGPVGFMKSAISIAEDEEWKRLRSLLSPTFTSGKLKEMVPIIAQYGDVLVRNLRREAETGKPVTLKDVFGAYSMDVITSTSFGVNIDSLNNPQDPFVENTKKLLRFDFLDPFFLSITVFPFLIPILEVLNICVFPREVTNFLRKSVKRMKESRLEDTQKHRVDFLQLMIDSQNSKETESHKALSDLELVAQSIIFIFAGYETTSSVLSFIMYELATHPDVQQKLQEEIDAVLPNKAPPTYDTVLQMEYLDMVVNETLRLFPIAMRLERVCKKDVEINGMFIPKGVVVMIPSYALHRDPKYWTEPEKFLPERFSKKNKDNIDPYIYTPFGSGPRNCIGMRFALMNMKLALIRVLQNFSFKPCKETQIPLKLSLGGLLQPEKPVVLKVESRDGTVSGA
Chain of CYP 2C19 (P33261 whole entry): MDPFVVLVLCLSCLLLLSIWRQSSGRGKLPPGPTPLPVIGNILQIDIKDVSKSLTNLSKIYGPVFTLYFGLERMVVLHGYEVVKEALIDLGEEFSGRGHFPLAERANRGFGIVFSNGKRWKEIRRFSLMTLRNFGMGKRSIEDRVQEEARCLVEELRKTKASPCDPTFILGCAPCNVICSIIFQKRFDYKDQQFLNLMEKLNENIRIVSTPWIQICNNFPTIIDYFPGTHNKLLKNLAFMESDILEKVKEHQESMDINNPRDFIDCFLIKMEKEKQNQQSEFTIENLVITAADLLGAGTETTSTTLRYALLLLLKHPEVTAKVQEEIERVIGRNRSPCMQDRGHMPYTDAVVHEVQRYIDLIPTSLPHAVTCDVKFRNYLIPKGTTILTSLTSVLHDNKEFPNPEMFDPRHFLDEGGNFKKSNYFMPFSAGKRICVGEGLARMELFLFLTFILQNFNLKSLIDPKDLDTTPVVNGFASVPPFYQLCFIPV

| SMILES | IC50 (CYP1A2) [µM] | IC50 (GHSR-1a) [µM] | IC50 (CYP 2C9) [µM] | IC50 (CYP 3A4) [µM] | IC50 (CYP 2C19) [µM] | IC50 (CYP 2D6) [µM] | IC50 at 10 min (CYP1A2) [µM] |
| --- | --- | --- | --- | --- | --- | --- | --- |
| NC(=O)C1(NC(=O)[C@H](Cc2ccccc2)NC(=O)[C@@H](Cc2c[nH]c3ccccc23)NC(=O)[C@@H](Cc2csc3ccccc23)NC(=O)C2CNC2)CCNCC1 [Compound 23] (Azetidine3carboxylic-[dBta][dW]F[Api]-NH2) | > 50 | 0.0033 | > 50 | > 50 | > 50 | > 50 | – |
| NC(=O)C1(NC(=O)[C@H](Cc2ccccc2)NC(=O)[C@@H](Cc2c[nH]c3ccccc23)NC(=O)[C@@H](Cc2csc3ccccc23)NC(=O)C2(N)COC2)CCNCC1 [Compound 24] (H-[Ac4c(3-oxa)][dBta][dW]F[Api]-NH2) | > 50 | 0.0054 | > 50 | > 50 | > 50 | > 50 | – |
| NC(=O)C1(NC(=O)[C@H](Cc2ccccc2)NC(=O)[C@@H](Cc2c[nH]c3ccccc23)NC(=O)[C@@H](Cc2csc3ccccc23)NC(=O)[C@H]2CCN2)CCNCC1 [Compound 25] (H-[dAze][dBta][dW]F[Api]-NH2) | > 50 | 0.0181 | > 50 | > 50 | > 50 | > 50 | – |
| NC(=O)C1(NC(=O)[C@H](Cc2ccccc2)NC(=O)[C@@H](Cc2c[nH]c3ccccc23)NC(=O)[C@@H](Cc2csc3ccccc23)NC(=O)[C@H]2CCNC2)CCNCC1 [Compound 26] ({Pyrrolidine3carbonyl(3S)}-[dBta][dW]F[Api]-NH2) | > 50 | 0.0195 | > 50 | > 50 | > 50 | > 50 | – |
| NC(=O)C1(NC(=O)[C@H](Cc2ccccc2)NC(=O)[C@@H](Cc2c[nH]c3ccccc23)NC(=O)[C@@H](Cc2csc3ccccc23)NC(=O)C23CNC[C@@H]2C3)CCNCC1 (stereo partly drawn) [Compound 30] (X2-[dBta][dW]F[Api]-NH2) | > 50 | 0.0134 | > 50 | > 50 | > 50 | > 50 | – |
| CC[C@@H](N)C(=O)N[C@H](Cc1csc2ccccc12)C(=O)N[C@H](Cc1c[nH]c2ccccc12)C(=O)N[C@@H](Cc1ccccc1)C(=O)N[C@H](CCCCN)C(N)=O [Compound 32] (H-[dAbu][dBta][dW]F[dK]-NH2) | > 50 | 0.0024 | > 50 | 2.55 | > 50 | 24.8 | – |
| CC[C@H](N)C(=O)N[C@H](Cc1csc2ccccc12)C(=O)N[C@H](Cc1c[nH]c2ccccc12)C(=O)N[C@@H](Cc1ccccc1)C(=O)N[C@H](CCCCN)C(N)=O [Compound 33] (H-[Abu][dBta][dW]F[dK]-NH2) | > 50 | 0.0031 | > 50 | > 50 | > 50 | > 50 | – |
| NCCCC[C@@H](NC(=O)[C@H](Cc1ccccc1)NC(=O)[C@@H](Cc1c[nH]c2ccccc12)NC(=O)[C@@H](Cc1csc2ccccc12)NC(=O)[C@@H]1CCCN1)C(N)=O [Compound 45] (H-P[dBta][dW]F[dK]-NH2) | > 50 | 0.0051 | > 50 | > 50 | > 50 | > 50 | – |
| NCCCC[C@@H](NC(=O)[C@H](Cc1ccccc1)NC(=O)[C@@H](Cc1c[nH]c2ccccc12)NC(=O)[C@@H](Cc1csc2ccccc12)NC(=O)CCN)C(N)=O [Compound 46] (H-[βAla][dBta][dW]F[dK]-NH2) | > 50 | 0.0028 | > 50 | > 50 | > 50 | > 50 | – |
| CC(C)(C)[C@@H](N)C(=O)N[C@H](Cc1csc2ccccc12)C(=O)N[C@H](Cc1c[nH]c2ccccc12)C(=O)N[C@@H](Cc1ccccc1)C(=O)N[C@H](CCCCN)C(N)=O [Compound 47] (H-[dTle][dBta][dW]F[dK]-NH2) | > 50 | 0.0107 | > 50 | > 50 | > 50 | > 50 | – |
| CC(C)(C)[C@H](N)C(=O)N[C@H](Cc1csc2ccccc12)C(=O)N[C@H](Cc1c[nH]c2ccccc12)C(=O)N[C@@H](Cc1ccccc1)C(=O)N[C@H](CCCCN)C(N)=O [Compound 48] (H-[Tle][dBta][dW]F[dK]-NH2) | > 50 | 0.0121 | > 50 | > 50 | > 50 | > 50 | – |
| NCCCC[C@@H](NC(=O)[C@H](Cc1ccccc1)NC(=O)[C@@H](Cc1c[nH]c2ccccc12)NC(=O)[C@@H](Cc1csc2ccccc12)NC(=O)[C@@H]1CCC[C@@H]1N)C(N)=O [Compound 51] (X1-[dBta][dW]F[dK]-NH2) | > 50 | 0.0032 | > 50 | > 50 | > 50 | > 50 | – |

Second part, the molecule after the results:

| IC50 (CYP1A2) [µM] | IC50 (GHSR-1a) [µM] | IC50 (CYP 2C9) [µM] | IC50 (CYP 3A4) [µM] | IC50 (CYP 2C19) [µM] | IC50 (CYP 2D6) [µM] | IC50 at 10 min (CYP1A2) [µM] | SMILES |
| --- | --- | --- | --- | --- | --- | --- | --- |
| > 50 | 0.0038 | > 50 | > 50 | > 50 | > 50 | – | NCCCC[C@@H](NC(=O)[C@H](Cc1ccccc1)NC(=O)[C@@H](Cc1c[nH]c2ccccc12)NC(=O)[C@@H](Cc1csc2ccccc12)NC(=O)C1(CN)CCC1)C(N)=O [Compound 52] (X3-[dBta][dW]F[dK]-NH2) |
| > 50 | 0.0112 | > 50 | > 50 | > 50 | > 50 | – | NCCCC[C@@H](NC(=O)[C@H](Cc1ccccc1)NC(=O)[C@@H](Cc1c[nH]c2ccccc12)NC(=O)[C@@H](Cc1csc2ccccc12)NC(=O)C1CNC1)C(N)=O [Compound 53] (Azetidine3carboxylic-[dBta][dW]F[dK]-NH2) |
| > 50 | 0.0139 | > 50 | > 50 | > 50 | > 50 | – | NCCCC[C@@H](NC(=O)[C@H](Cc1ccccc1)NC(=O)[C@@H](Cc1c[nH]c2ccccc12)NC(=O)[C@@H](Cc1csc2ccccc12)NC(=O)C1(N)COC1)C(N)=O [Compound 54] (H-[Ac4c(3-oxa)][dBta][dW]F[dK]-NH2) |
| > 50 | 0.0055 | > 50 | > 50 | > 50 | > 50 | – | NCCCC[C@@H](NC(=O)[C@H](Cc1ccccc1)NC(=O)[C@@H](Cc1c[nH]c2ccccc12)NC(=O)[C@@H](Cc1csc2ccccc12)NC(=O)[C@H]1CCNC1)C(N)=O [Compound 56] ({Pyrrolidine3carbonyl(3S)}-[dBta][dW]F[dK]-NH2) |
| – | 0.0033 | > 50 | > 50 | > 50 | > 50 | > 50 | NC(=O)[C@H](Cc1ccccc1)NC(=O)[C@@H](Cc1c[nH]c2ccccc12)NC(=O)[C@@H](Cc1csc2ccccc12)NC(=O)[C@@H]1CCC[C@@H]1N [Compound 71] |
| – | 0.004 | > 50 | > 50 | > 50 | > 50 | > 50 | NCC1(C(=O)N[C@H](Cc2csc3ccccc23)C(=O)N[C@H](Cc2c[nH]c3ccccc23)C(=O)N[C@@H](Cc2ccccc2)C(N)=O)CCC1 [Compound 72] |
| – | 0.0039 | > 50 | > 50 | > 50 | > 50 | > 50 | NC(=O)[C@H](Cc1ccccc1)NC(=O)[C@@H](Cc1c[nH]c2ccccc12)NC(=O)[C@@H](Cc1csc2ccccc12)NC(=O)[C@H]1CCNC1 [Compound 76] |
| – | 0.0136 | > 50 | > 50 | > 50 | > 50 | > 50 | NC(=O)[C@H](Cc1ccccc1)NC(=O)[C@@H](Cc1c[nH]c2ccccc12)NC(=O)[C@@H](Cc1csc2ccccc12)NC(=O)[C@H]1CNCCO1 [Compound 77] |
| – | 0.0351 | > 50 | > 50 | > 50 | > 50 | > 50 | NC(=O)[C@H](Cc1ccccc1)NC(=O)[C@@H](Cc1c[nH]c2ccccc12)NC(=O)[C@@H](Cc1csc2ccccc12)NC(=O)[C@@]12CNC[C@@H]1C2 [Compound 80] |
